Like-named read-outs stand apart in the source and are kept apart here.
Experiments:
[1] = Thermodynamic stability and interconversion of polymorphs; assay type: physicochemical
[2] = Hygroscopicity of the crystalline form; assay type: physicochemical; settings: solid crystalline form

| SMILES | polymorphic conversion under heating ([1]; conditions of heating) | hygroscopicity [2] | thermodynamic stability relative to other polymorphs [1] | polymorphic conversion in aqueous solvent systems ([1]; aqueous solvent systems) | thermodynamic stability relative to other polymorphs ([1]; listed as form A) |
| --- | --- | --- | --- | --- | --- |
| Nc1cccc2c1CN(C1CCC(=O)NC1=O)C2=O (centres unmarked) [form B, 3-(4-amino-1-oxo-1,3-dihydro-isoindol-2-yl)-piperidine-2,6-dione] | convert to form A |  |  |  |  |
| Nc1cccc2c1CN(C1CCC(=O)NC1=O)C2=O (centres unmarked) [lenalidomide crystalline form A, 3-(4-amino-1-oxo-1,3-dihydro-isoindol-2-yl)-piperidine-2,6-dione] |  | non-hygroscopic | most thermodynamically stable anhydrous polymorph | convert to form B | most thermodynamically stable form |
